Test results published in patent US20160376605A1, “WHEAT PLANTS HAVING INCREASED TOLERANCE TO IMIDAZOLINONE HERBICIDES” (BASF SE, priority 2003, published 2016).

Experiments:
[1] = system: Durum wheat M3:4 lines derived from M2 plant UT05; experiment: Field Trials (2): tolerance scores at two rates of imazamox; format: in vivo; settings: UT05, range across M3:4 lines
Description: (§1) One hundred ten M3:4 lines derived from sixteen M2 plants were screened at 71 g/ha and 160 g/ha imazamox. The number of M4 lines per M2 plant varied from one to twenty. Tolerance of M3:4 lines was compared to untreated plots of the same line as well as to treated plots of a wild-type cultivar from which some of them were derived.
(§2) All tested lines survived at both rates of herbicide treatment, whereas all plants of the wild type were killed at both rates. Based on comparison to the wild type line, all lines tested expressed considerable tolerance to the applied rates, particularly when looking at height reduction relative to untreated plots. A rate of 35 g/ha imazamox is adequate to kill susceptible durum wheat.

[2] = system: Durum wheat M3:4 lines derived from M2 plant UT07; experiment: as above; format: in vivo; settings: UT07, range across M3:4 lines
Description: as §1, §2

[3] = system: Durum wheat M3:4 lines derived from M2 plant UT10; experiment: as above; format: in vivo; settings: UT10, range across M3:4 lines
Description: as §1, §2

[4] = system: Durum wheat M3:4 lines derived from M2 plant UT15; experiment: as above; format: in vivo; settings: UT15, range across M3:4 lines
Description: as §1, §2

[5] = system: Durum wheat M3:4 lines derived from M2 plant UT20; experiment: as above; format: in vivo; settings: UT20, range across M3:4 lines
Description: as §1, §2

Durum line C119 = experiment: Greenhouse Trial: plant injury rating, imazamox; format: in vivo, Durum wheat; settings: 0-9 scale, 0 = no injury, 9 = plant death
Description: (§3) Fifteen Durum lines, each derived from a different M2 plant, and two wild type durum lines were evaluated for tolerance to the imidazolinone herbicide imazamox at rates of 100 and 160 g/ha in a greenhouse trial. Evaluations of tolerance were made at 14 and 21 days after treatment. Injury was scored on a 0-9 scale, with 0 representing no injury and 9 plant death.

Durum line UT12 = experiment: Greenhouse Trial: plant injury rating, imazamox; format: in vivo, Durum wheat; settings: 0-9 scale, 0 = no injury, 9 = plant death
Description: as §3

Durum line UT13 = experiment: Greenhouse Trial: plant injury rating, imazamox; format: in vivo, Durum wheat; settings: 0-9 scale, 0 = no injury, 9 = plant death
Description: as §3

Durum line UT14 = experiment: Greenhouse Trial: plant injury rating, imazamox; format: in vivo, Durum wheat; settings: 0-9 scale, 0 = no injury, 9 = plant death
Description: as §3

Durum line UT16 = experiment: Greenhouse Trial: plant injury rating, imazamox; format: in vivo, Durum wheat; settings: 0-9 scale, 0 = no injury, 9 = plant death
Description: as §3

Durum line UT17 = experiment: Greenhouse Trial: plant injury rating, imazamox; format: in vivo, Durum wheat; settings: 0-9 scale, 0 = no injury, 9 = plant death
Description: as §3

Durum line UT19 = experiment: Greenhouse Trial: plant injury rating, imazamox; format: in vivo, Durum wheat; settings: 0-9 scale, 0 = no injury, 9 = plant death
Description: as §3

Durum line UT20 = experiment: Greenhouse Trial: plant injury rating, imazamox; format: in vivo, Durum wheat; settings: 0-9 scale, 0 = no injury, 9 = plant death
Description: as §3

Durum line UTO1 = experiment: Greenhouse Trial: plant injury rating, imazamox; format: in vivo, Durum wheat; settings: 0-9 scale, 0 = no injury, 9 = plant death
Description: as §3

Durum line UTO5 = experiment: Greenhouse Trial: plant injury rating, imazamox; format: in vivo, Durum wheat; settings: 0-9 scale, 0 = no injury, 9 = plant death
Description: as §3

Durum line UTO7 = experiment: Greenhouse Trial: plant injury rating, imazamox; format: in vivo, Durum wheat; settings: 0-9 scale, 0 = no injury, 9 = plant death
Description: as §3

Durum line UTO8 = experiment: Greenhouse Trial: plant injury rating, imazamox; format: in vivo, Durum wheat; settings: 0-9 scale, 0 = no injury, 9 = plant death
Description: as §3

[6] = system: Wild Type Line UT (durum); experiment: Greenhouse Trial: plant injury rating, imazamox; format: in vivo, Durum wheat; settings: for Average plant injury rating: Wild Type Line UT, 0-9 scale, 0 = no injury, 9 = plant death
Description: as §3

COCc1cnc(C2=NC(C)(C(C)C)C(=O)N2)c(C(=O)O)c1 (stereo not drawn) [imazamox]
% Chlorosis ([1]; imazamox 71 g/ha, 14 DAT): 5-10% | % Height Reduction ([1]; imazamox 71 g/ha, 14 DAT): 5-10% | % Chlorosis ([1]; imazamox 71 g/ha, 30 DAT): 5-10% | % Height Reduction ([1]; imazamox 71 g/ha, 30 DAT): 5-10% | % Chlorosis ([1]; imazamox 160 g/ha, 14 DAT): 5-15% | % Height Reduction ([1]; imazamox 160 g/ha, 14 DAT): 10-30% | % Chlorosis ([1]; imazamox 160 g/ha, 30 DAT): 5-20% | % Height Reduction ([1]; imazamox 160 g/ha, 30 DAT): 5-20% | % Chlorosis ([2]; imazamox 71 g/ha, 14 DAT): 0-5% | % Height Reduction ([2]; imazamox 71 g/ha, 14 DAT): 0-10% | % Chlorosis ([2]; imazamox 71 g/ha, 30 DAT): 0-10% | % Height Reduction ([2]; imazamox 71 g/ha, 30 DAT): 0-5% | % Chlorosis ([2]; imazamox 160 g/ha, 14 DAT): 5-10% | % Height Reduction ([2]; imazamox 160 g/ha, 14 DAT): 0-10% | % Chlorosis ([2]; imazamox 160 g/ha, 30 DAT): 5-15% | % Height Reduction ([2]; imazamox 160 g/ha, 30 DAT): 0-10% | % Chlorosis ([3]; imazamox 71 g/ha, 14 DAT): 5-10% | % Height Reduction ([3]; imazamox 71 g/ha, 14 DAT): 0-10% | % Chlorosis ([3]; imazamox 71 g/ha, 30 DAT): 5% | % Height Reduction ([3]; imazamox 71 g/ha, 30 DAT): 0-5% | % Chlorosis ([3]; imazamox 160 g/ha, 14 DAT): 10% | % Height Reduction ([3]; imazamox 160 g/ha, 14 DAT): 0-20% | % Chlorosis ([3]; imazamox 160 g/ha, 30 DAT): 5% | % Height Reduction ([3]; imazamox 160 g/ha, 30 DAT): 0-10% | % Chlorosis ([4]; imazamox 71 g/ha, 14 DAT): 30-70% | % Height Reduction ([4]; imazamox 71 g/ha, 14 DAT): 0-10% | % Chlorosis ([4]; imazamox 71 g/ha, 30 DAT): 0-10% | % Height Reduction ([4]; imazamox 71 g/ha, 30 DAT): 5-20% | % Chlorosis ([4]; imazamox 160 g/ha, 14 DAT): 30-70% | % Height Reduction ([4]; imazamox 160 g/ha, 14 DAT): 0-10% | % Chlorosis ([4]; imazamox 160 g/ha, 30 DAT): 0-15% | % Height Reduction ([4]; imazamox 160 g/ha, 30 DAT): 5-30% | % Chlorosis ([5]; imazamox 71 g/ha, 14 DAT): 0-5% | % Height Reduction ([5]; imazamox 71 g/ha, 14 DAT): 0% | % Chlorosis ([5]; imazamox 71 g/ha, 30 DAT): 0% | % Height Reduction ([5]; imazamox 71 g/ha, 30 DAT): 5-10% | % Chlorosis ([5]; imazamox 160 g/ha, 14 DAT): 5-10% | % Height Reduction ([5]; imazamox 160 g/ha, 14 DAT): 0-20% | % Chlorosis ([5]; imazamox 160 g/ha, 30 DAT): 0% | % Height Reduction ([5]; imazamox 160 g/ha, 30 DAT): 10-15% | Average plant injury rating (Durum line C119; imazamox 100 g/ha, 14 DAT): 4.8 | Average plant injury rating (Durum line C119; imazamox 100 g/ha, 21 DAT): 1.0 | Average plant injury rating (Durum line C119; imazamox 160 g/ha, 14 DAT): 4.9 | Average plant injury rating (Durum line C119; imazamox 160 g/ha, 21 DAT): 1.4 | Average plant injury rating (Durum line UT12; imazamox 100 g/ha, 14 DAT): 4.8 | Average plant injury rating (Durum line UT12; imazamox 100 g/ha, 21 DAT): 2.1 | Average plant injury rating (Durum line UT12; imazamox 160 g/ha, 14 DAT): 5.7 | Average plant injury rating (Durum line UT12; imazamox 160 g/ha, 21 DAT): 2.8 | Average plant injury rating (Durum line UT13; imazamox 100 g/ha, 14 DAT): 4.7 | Average plant injury rating (Durum line UT13; imazamox 100 g/ha, 21 DAT): 2.3 | Average plant injury rating (Durum line UT13; imazamox 160 g/ha, 14 DAT): 5.8 | Average plant injury rating (Durum line UT13; imazamox 160 g/ha, 21 DAT): 3.4 | Average plant injury rating (Durum line UT14; imazamox 100 g/ha, 14 DAT): 3.1 | Average plant injury rating (Durum line UT14; imazamox 100 g/ha, 21 DAT): 1.7 | Average plant injury rating (Durum line UT14; imazamox 160 g/ha, 14 DAT): 4.8 | Average plant injury rating (Durum line UT14; imazamox 160 g/ha, 21 DAT): 3.5 | Average plant injury rating (Durum line UT16; imazamox 100 g/ha, 14 DAT): 5.4 | Average plant injury rating (Durum line UT16; imazamox 100 g/ha, 21 DAT): 2.0 | Average plant injury rating (Durum line UT16; imazamox 160 g/ha, 14 DAT): 4.9 | Average plant injury rating (Durum line UT16; imazamox 160 g/ha, 21 DAT): 2.8 | Average plant injury rating (Durum line UT17; imazamox 100 g/ha, 14 DAT): 4.1 | Average plant injury rating (Durum line UT17; imazamox 100 g/ha, 21 DAT): 2.5 | Average plant injury rating (Durum line UT17; imazamox 160 g/ha, 14 DAT): 4.7 | Average plant injury rating (Durum line UT17; imazamox 160 g/ha, 21 DAT): 3.1 | Average plant injury rating (Durum line UT19; imazamox 100 g/ha, 14 DAT): 3.3 | Average plant injury rating (Durum line UT19; imazamox 100 g/ha, 21 DAT): 1.1 | Average plant injury rating (Durum line UT19; imazamox 160 g/ha, 14 DAT): 3.6 | Average plant injury rating (Durum line UT19; imazamox 160 g/ha, 21 DAT): 1.7 | Average plant injury rating (Durum line UT20; imazamox 100 g/ha, 14 DAT): 5.0 | Average plant injury rating (Durum line UT20; imazamox 100 g/ha, 21 DAT): 2.1 | Average plant injury rating (Durum line UT20; imazamox 160 g/ha, 14 DAT): 5.3 | Average plant injury rating (Durum line UT20; imazamox 160 g/ha, 21 DAT): 2.5 | Average plant injury rating (Durum line UTO1; imazamox 100 g/ha, 14 DAT): 4.0 | Average plant injury rating (Durum line UTO1; imazamox 100 g/ha, 21 DAT): 1.4 | Average plant injury rating (Durum line UTO1; imazamox 160 g/ha, 14 DAT): 4.1 | Average plant injury rating (Durum line UTO1; imazamox 160 g/ha, 21 DAT): 2.6 | Average plant injury rating (Durum line UTO5; imazamox 100 g/ha, 14 DAT): 3.0 | Average plant injury rating (Durum line UTO5; imazamox 100 g/ha, 21 DAT): 1.3 | Average plant injury rating (Durum line UTO5; imazamox 160 g/ha, 14 DAT): 3.3 | Average plant injury rating (Durum line UTO5; imazamox 160 g/ha, 21 DAT): 1.8 | Average plant injury rating (Durum line UTO7; imazamox 100 g/ha, 14 DAT): 3.7 | Average plant injury rating (Durum line UTO7; imazamox 100 g/ha, 21 DAT): 1.9 | Average plant injury rating (Durum line UTO7; imazamox 160 g/ha, 14 DAT): 4.4 | Average plant injury rating (Durum line UTO7; imazamox 160 g/ha, 21 DAT): 2.5 | Average plant injury rating (Durum line UTO8; imazamox 100 g/ha, 14 DAT): 4.5 | Average plant injury rating (Durum line UTO8; imazamox 100 g/ha, 21 DAT): 1.9 | Average plant injury rating (Durum line UTO8; imazamox 160 g/ha, 14 DAT): 5.5 | Average plant injury rating (Durum line UTO8; imazamox 160 g/ha, 21 DAT): 3.0 | Average plant injury rating ([6]; imazamox 100 g/ha, 14 DAT): 8.9 | Average plant injury rating ([6]; imazamox 100 g/ha, 21 DAT): 9.0 | Average plant injury rating ([6]; imazamox 160 g/ha, 14 DAT): 9.0 | Average plant injury rating ([6]; imazamox 160 g/ha, 21 DAT): 9.0 | survival of wild type plants ([6]; imazamox 100 and 160 g/ha, by 21 days after treatment): killed
